The values below come from patent US20200121699A1, “COMBINATION THERAPIES COMPRISING IMMUNO-ONCOLOGY AGENTS AND BELINOSTAT” (ONXEO, priority 2016, published 2020).

Test [1] relates to Hepa129 murine hepatocellular carcinoma cells. Description: Antitumor efficacy in subcutaneous Hepa129 hepatocellular carcinoma mouse model. Format: in vivo, C3H mice. Particulars: s.c. Hepa129 tumors, Beleodaq 90 mg/kg IP daily D7 to D27, antibodies 50 μg/mouse IP D7, D14. How it is done: As tumor model, Hepa129 murine hepatocellular carcinoma cells implanted subcutaneously in C3H mice were used. Hepa129 cells were maintained in culture up to 3 passages before injection in mice. Cells were sub-cultured three days before the day of injection.
The day of cell injection, Hepa129 cells were harvested and centrifuged at 1800 rpm for 5 min, and resuspended in PBS. Cells were counted in 0.04% Trypan Blue for viability quantification. Cells were resuspended in the adequate volume of PBS in order to have 10^6 cells in 100 μL. […] were subcutaneously injected into the right flank of mice.
When subcutaneous Hepa129 tumors reached a mean tumor diameter of about 5 mm (day 7), mice were allocated to treatment groups and identified individually by ear tags. Beleodaq® was administered IP daily at days 7 to 27 at 90 mg/kg. Antibodies Isotype control (2A3) and anti-CTLA-4 (9D9) (from BioXcell) were administered IP at days 7 and 14.
Treatment allocation were performed as follows for antitumor efficacy study:
Animals were monitored and sacrificed when tumor diameter reached 17 mm. Each experiment was carried out twice with n=8 animals per group.

Test [2] has as its system irradiated Hepa129 tumor cells. Description: IFN-gamma ELISPOT of spleen cells from treated tumor-bearing mice stimulated with irradiated tumor cells. Format: in vivo, C3H mice. Particulars: 20-h ELISPOT, two-week treatment, versus the same antibody without Beleodaq. As for the experimental part: Treatment allocation were performed as follows for immune characterization study:
A single experiment was carried out for each drug, using n=5 animals per group.
Lymphoid organs (spleen, lymph nodes) were obtained from sacrificed animals, homogenized and cell suspensions were used to measure the following parameters:
ELISPOT: measuring the number of IFN-gamma spot forming cells after co-culture of lymphocytes with irradiated Hepa129 tumor cells.
Tumor-bearing mice were treated during two weeks and sacrificed to obtain their spleen and analyze immune-related parameters. For these experiments mice received two antibody administrations (days 0 and 7) and Beleodaq® (daily) during the two-week treatment period.
Functional assays: Spleen cells were stimulated with irradiated tumor cells to analyze antitumor T cell responses measured as IFN-gamma production using a 20-h ELISPOT assay.

A further test deals with 4T1 breast cancer cells. The experiment in a line: Orthotopic 4T1 breast cancer mouse model. Format: in vivo, Balb/C mouse. Particulars: 4T1 in mammary fat gland; belinostat 80 mg/kg i.p. daily from day 8; antibodies 200 μg/mouse i.p. As for the experimental part:
The Belinostat treatment was formulated every one or two day.
The aPD1 treatment solutions were prepared on the days of the treatment (days 8, 12, 16 and 20).
The aCTLA4 treatment solutions were prepared on days 7, 11, 16 and 20 and stored at 4° C.
4T1 breast cancer cells (5*10^5 cells per Balb/C mouse) were in occulated in the mammary fat gland of Balb/C females. The 4T1 (ATCC CRL-2539) cells were bought from ATCC and cultured in RPMI-1640 Medium containing 10% fetal bovine serum. Cells were passaged 5-10 times before in inoculation. Cells were detached with trypsin, washed twice in PBS, centrifuged and resuspended in PBS. Cell viability was checked by a staining with […] and cells were used when viability was higher than 95%. Cells were counted manually and adjusted to 5*10^6 cells per ml. Finally 100 μl were injected.

For the molecule `O=C(/C=C/c1cccc(S(=O)(=O)Nc2ccccc2)c1)NO` [Beleodaq®, (2E)-N-hydroxy-3-[3-(phenylsulfamoyl)phenyl]prop-2-enamide], the tumor growth entry in test [1] is given as “did not modify”. In addition, in test [1] (sacrificed when tumor diameter reached 17 mm), the animal survival result is recorded as “did not modify”. Also, the “antitumor T cell responses measured as IFN-gamma production” value in test [2] is “no significant differences”. Besides, in the test on 4T1 breast cancer cells, the “apparent external tumor size” value is reported as “reduced” and the mortality entry was “reduced”.
